ChEMBL document CHEMBL1201862, “PubChem BioAssay data set” (2004)
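Results reflect a 48-hour exposure of cells in 96-well plates to compound at five concentrations. GI50 marks 50% less growth.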 Calls of active or inactive are those of the source. Cut-off read from the data, not from the text of the source: active = GI50 up to about 1.1 µM and inactive = higher.

Key:
Experiment in all cases: NCI anticancer screen, dose series, 48 h
DU-145 = system: DU-145
HCT-116 = system: HCT-116
NCI-H23 = system: NCI-H23
RPMI-8226 = system: RPMI-8226
SF-539 = system: SF-539
SNB-75 = system: SNB-75
A549 = system: A549
SK-MEL-5 = system: SK-MEL-5
ACHN = system: ACHN
HOP-92 = system: HOP-92
HL-60 = system: HL-60
CAKI-1 = system: CAKI-1
IGROV-1 = system: IGROV-1
COLO 205 = system: COLO 205
NCI-H522 = system: NCI-H522
SK-OV-3 = system: SK-OV-3
786-0 = system: 786-0
SR = system: SR
OVCAR-3 = system: OVCAR-3
NCI-H226 = system: NCI-H226

SMILES	GI50 (DU-145)	GI50 (HCT-116)	GI50 (NCI-H23)	GI50 (RPMI-8226)	GI50 (SF-539)	GI50 (SNB-75)	GI50 (A549)	GI50 (SK-MEL-5)	GI50 (ACHN)	GI50 (HOP-92)	GI50 (HL-60)	GI50 (CAKI-1)	GI50 (IGROV-1)	GI50 (COLO 205)	GI50 (NCI-H522)	GI50 (SK-OV-3)	GI50 (786-0)	GI50 (SR)	GI50 (OVCAR-3)	GI50 (NCI-H226)
CCOC(=O)c1cc(Sc2ccc(N)c(C(=O)OCC)c2)ccc1N	> 100 µM (inactive)	> 100 µM (inactive)	25.3 µM (inactive)	24 µM (inactive)	24.9 µM (inactive)	12.3 µM (inactive)	19.6 µM (inactive)	> 100 µM (inactive)	10.4 µM (inactive)	58.2 µM (inactive)	16.7 µM (inactive)	7.69 µM (inactive)	18.6 µM (inactive)	60.8 µM (inactive)	4.38 µM (inactive)	> 100 µM (inactive)	26.4 µM (inactive)	6.95 µM (inactive)	24.8 µM (inactive)	16.7 µM (inactive)
CC1(C)OC(C(=O)Nc2cc3c4ccccc4ccc3c3ccccc23)C(C(=O)N2CCCCC2)O1 (stereo not given)	5.97 µM (inactive)	0.507 µM (active)	> 21.4 µM (inactive)	0.592 µM (active)	0.587 µM (active)	2.74 µM (inactive)	1.04 µM (active)	1.98 µM (inactive)	0.897 µM (active)	31.6 µM (inactive)	1.41 µM (inactive)	0.493 µM (active)	1.32 µM (inactive)	0.966 µM (active)	0.863 µM (active)	20.6 µM (inactive)	1.77 µM (inactive)	0.0964 µM (active)	2.29 µM (inactive)	60.4 µM (inactive)
O=C(O)COc1c(Cl)cc(Cl)c2cccnc12	> 100 µM (inactive)	> 100 µM (inactive)	> 100 µM (inactive)	> 100 µM (inactive)	> 100 µM (inactive)	> 100 µM (inactive)	> 100 µM (inactive)	> 100 µM (inactive)	> 100 µM (inactive)	> 100 µM (inactive)	> 100 µM (inactive)	> 100 µM (inactive)	96.4 µM (inactive)	> 100 µM (inactive)	> 100 µM (inactive)	> 100 µM (inactive)	> 100 µM (inactive)	> 100 µM (inactive)	> 100 µM (inactive)	> 100 µM (inactive)
C=C(CCOC)CCC1CCCCC(=C)[C@H]1OC(C)=O (stereo not given in full)	> 100 µM (inactive)	> 100 µM (inactive)	93.8 µM (inactive)	51.1 µM (inactive)	> 100 µM (inactive)	> 100 µM (inactive)	> 100 µM (inactive)	63.2 µM (inactive)	> 100 µM (inactive)	> 100 µM (inactive)	50.7 µM (inactive)	> 100 µM (inactive)	> 100 µM (inactive)	> 100 µM (inactive)	41.8 µM (inactive)	> 100 µM (inactive)	> 100 µM (inactive)	52.5 µM (inactive)	> 100 µM (inactive)	97.3 µM (inactive)
CC(C)(Cl)C(Cl)CC/C(CBr)=C(\Cl)CBr (stereo not given)	7.5 µM (inactive)	2.23 µM (inactive)	1.85 µM (inactive)	0.706 µM (active)	2.4 µM (inactive)	2.23 µM (inactive)	10.6 µM (inactive)	1.79 µM (inactive)	3.66 µM (inactive)	1.75 µM (inactive)	0.32 µM (active)	2.62 µM (inactive)	1.66 µM (inactive)	2.62 µM (inactive)	0.55 µM (active)	4.31 µM (inactive)	1.36 µM (inactive)	0.443 µM (active)	2.64 µM (inactive)	1.79 µM (inactive)
COC(C)(C)[C@@H](O)[C@H]1C[C@H](C)[C@@]2(CC[C@]3(C)[C@@H]2CC[C@@H]2[C@@]4(C)CC[C@@H](OC(C)=O)C(C)(C)[C@@H]4C[C@@H](OC4OC(COC(C)=O)C(O)C(O)C4O)[C@]23C)O1 (stereo not given in full)	4.37 µM (inactive)	3.25 µM (inactive)	10.2 µM (inactive)	2.42 µM (inactive)	10.1 µM (inactive)	4.46 µM (inactive)	4.01 µM (inactive)	6.53 µM (inactive)	5.86 µM (inactive)	4.8 µM (inactive)	2.1 µM (inactive)	8.43 µM (inactive)	4.39 µM (inactive)	2.38 µM (inactive)	4.04 µM (inactive)	4.7 µM (inactive)	5.86 µM (inactive)	2.52 µM (inactive)	4.26 µM (inactive)	4.75 µM (inactive)
COC1=CC(=O)c2nc3ccccc3c3ccnc1c23	3.25 µM (inactive)	1.2 µM (inactive)	1.35 µM (inactive)	1.83 µM (inactive)	2.92 µM (inactive)	9.89 µM (inactive)	1.12 µM (inactive)	0.653 µM (active)	3.42 µM (inactive)	15.8 µM (inactive)	2.38 µM (inactive)	14.3 µM (inactive)	3.56 µM (inactive)	6.64 µM (inactive)	2.22 µM (inactive)	26.9 µM (inactive)	3.64 µM (inactive)	1.56 µM (inactive)	2.04 µM (inactive)	10.8 µM (inactive)
CC(C)(C)c1ccc(S(=O)(=O)N2C(c3cccc(C4CC[C@@H](C(=O)O)N4S(=O)(=O)c4ccc(C(C)(C)C)cc4)c3)CC[C@H]2C(=O)O)cc1 (stereo not given in full)	75.3 µM (inactive)	38.1 µM (inactive)	40.2 µM (inactive)	34.5 µM (inactive)	87.3 µM (inactive)	> 100 µM (inactive)	66.7 µM (inactive)	57.7 µM (inactive)	57.4 µM (inactive)	58.1 µM (inactive)	43.5 µM (inactive)	42.5 µM (inactive)	33.5 µM (inactive)	34 µM (inactive)	38.7 µM (inactive)	> 100 µM (inactive)	49.4 µM (inactive)	33.1 µM (inactive)	28 µM (inactive)	71.9 µM (inactive)
C(=C\c1nccs1)/c1cccc(/C=C/c2nccs2)n1	> 50 µM (inactive)	> 50 µM (inactive)	> 50 µM (inactive)	> 50 µM (inactive)	> 50 µM (inactive)	22 µM (inactive)	> 50 µM (inactive)	> 50 µM (inactive)	> 50 µM (inactive)	> 50 µM (inactive)	> 50 µM (inactive)	> 50 µM (inactive)	26.5 µM (inactive)	> 50 µM (inactive)	> 50 µM (inactive)	> 50 µM (inactive)	> 50 µM (inactive)	> 50 µM (inactive)	> 50 µM (inactive)	> 50 µM (inactive)
